Test results from the supplement of paper PMC4862054.

Legend:
DU-4475 [1] = assay: normalised viability (% of control), CellTiter-Blue; higher = more viable cells (100 = DMSO, 0 = benzethonium chloride kill control); conditions: 1 nM; incubation time: 72 h
Procedure: (§1)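 DSRT, CellTiter-Blue viability, 72 h incubation. Signal is normalised to DMSO and benzethonium chloride controls. Value is the normalised response at dose 1.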

MDA-MB-436 [2] = assay: as above; conditions: 1 nM; incubation time: 72 h
Procedure: as §1

CAL-85-1 [3] = assay: as above; conditions: 1 nM; incubation time: 72 h
Procedure: as §1

HCC1937 = assay: as above; conditions: 1 nM; incubation time: 72 h
Procedure: as §1

BT-549 = assay: as above; conditions: 1 nM; incubation time: 72 h
Procedure: as §1

BT-474 [4] = assay: as above; conditions: 1 nM; incubation time: 72 h
Procedure: as §1

MDA-MB-468 = assay: as above; conditions: 1 nM; incubation time: 72 h
Procedure: as §1

MFM-223 [5] = assay: as above; conditions: 1 nM; incubation time: 72 h
Procedure: as §1

CAL-51 [6] = assay: as above; conditions: 1 nM; incubation time: 72 h
Procedure: as §1

MDA-MB-453 [7] = assay: as above; conditions: 1 nM; incubation time: 72 h
Procedure: as §1

Hs578T [8] = assay: as above; conditions: 1 nM; incubation time: 72 h
Procedure: as §1

CAL-148 [9] = assay: as above; conditions: 1 nM; incubation time: 72 h
Procedure: as §1

SK-BR-3 = assay: as above; conditions: 1 nM; incubation time: 72 h
Procedure: as §1

HDQ-P1 = assay: as above; conditions: 1 nM; incubation time: 72 h
Procedure: as §1

HCC1143 [10] = assay: as above; conditions: 1 nM; incubation time: 72 h
Procedure: as §1

CAL-120 [11] = assay: as above; conditions: 1 nM; incubation time: 72 h
Procedure: as §1

HCC1599 [12] = assay: as above; conditions: 1 nM; incubation time: 72 h
Procedure: as §1

MDA-MB-231 = assay: as above; conditions: 1 nM; incubation time: 72 h
Procedure: as §1

CAL-85-1 [13] = assay: normalised viability (% of control), CellTiter-Blue; higher = more viable cells (about 100 = DMSO control); conditions: 1000 nM; incubation time: 72 h
How it was run: (§2)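 After 72 h on compound-loaded 384-well plates, breast cancer cell lines received 2.5 µl CellTiter-Blue reagent for 2 h at 37 °C. Fluorescence at 560/590 nm was scaled per plate so that vehicle was 100 and a positive kill control was 0. The value stands for normalised viability at a single listed concentration of the series.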

CAL-148 [14] = assay: as above; conditions: 1000 nM; incubation time: 72 h
How it was run: as §2

DU-4475 [15] = assay: normalised viability (% of control), CellTiter-Blue; higher = more viable cells (about 100 = DMSO control); conditions: 10 nM; incubation time: 72 h
Procedure: (§3)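 DSRT, CellTiter-Blue viability, 72 h incubation. Signal is normalised to DMSO and benzethonium chloride controls. Value is the normalised response at dose 3.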

MDA-MB-436 [16] = assay: as above; conditions: 100 nM; incubation time: 72 h
Procedure: as §3

BT-474 [17] = assay: as above; conditions: 100 nM; incubation time: 72 h
Procedure: as §3

MFM-223 [18] = assay: as above; conditions: 100 nM; incubation time: 72 h
Procedure: as §3

CAL-51 [19] = assay: as above; conditions: 10 nM; incubation time: 72 h
Procedure: as §3

MDA-MB-453 [20] = assay: as above; conditions: 10 nM; incubation time: 72 h
Procedure: as §3

Hs578T [21] = assay: as above; conditions: 100 nM; incubation time: 72 h
Procedure: as §3

HCC1143 [22] = assay: as above; conditions: 100 nM; incubation time: 72 h
Procedure: as §3

CAL-120 [23] = assay: as above; conditions: 100 nM; incubation time: 72 h
Procedure: as §3

HCC1599 [24] = assay: as above; conditions: 100 nM; incubation time: 72 h
Procedure: as §3

Compound | normalised viability (DU-4475 [1]) [%] | normalised viability (MDA-MB-436 [2]) [%] | normalised viability (CAL-85-1 [3]) [%] | normalised viability (HCC1937) [%] | normalised viability (BT-549) [%] | normalised viability (BT-474 [4]) [%] | normalised viability (MDA-MB-468) [%] | normalised viability (MFM-223 [5]) [%] | normalised viability (CAL-51 [6]) [%] | normalised viability (MDA-MB-453 [7]) [%] | normalised viability (Hs578T [8]) [%] | normalised viability (CAL-148 [9]) [%] | normalised viability (SK-BR-3) [%] | normalised viability (HDQ-P1) [%] | normalised viability (HCC1143 [10]) [%] | normalised viability (CAL-120 [11]) [%] | normalised viability (HCC1599 [12]) [%] | normalised viability (MDA-MB-231) [%] | normalised viability (CAL-85-1 [13]) [%] | normalised viability (CAL-148 [14]) [%] | normalised viability (DU-4475 [15]) [%] | normalised viability (MDA-MB-436 [16]) [%] | normalised viability (BT-474 [17]) [%] | normalised viability (MFM-223 [18]) [%] | normalised viability (CAL-51 [19]) [%] | normalised viability (MDA-MB-453 [20]) [%] | normalised viability (Hs578T [21]) [%] | normalised viability (HCC1143 [22]) [%] | normalised viability (CAL-120 [23]) [%] | normalised viability (HCC1599 [24]) [%]
O=C(O)C(=O)O.[NH-][C@@H]1CCCC[C@H]1[NH-].[Pt+2] [Oxaliplatin] | 99.8 | 106 | 86.7 | 84 | 89 | 103 | 109 | 97.1 | 93.3 | 100 | 96.7 | 109 | 91 | 130 | 93 | 84.8 | 93 | 101 | 93.2 | 125 | 95.9 | 96.1 | 127 | 91.8 | 103 | 114 | 95.7 | 98.2 | 91 | 96.1
Nc1nc2[nH]cc(CCc3ccc(C(=O)N[C@@H](CCC(=O)O)C(=O)O)cc3)c2c(=O)[nH]1 [Pemetrexed] | 99.3 | 104 | 89.2 | 84.5 | 101 | 106 | 96.9 | 93.1 | 109 | 101 | 114 | 113 | 98.9 | 107 | 92.5 | 87 | 92.6 | 100 | 72.3 | 115 | 104 | 97.2 | 125 | 91.6 | 108 | 118 | 102 | 91.6 | 86 | 88.9
COc1cc([C@@H]2c3cc4c(cc3[C@@H](O[C@@H]3O[C@@H]5CO[C@@H](c6cccs6)O[C@H]5[C@H](O)[C@H]3O)[C@H]3COC(=O)[C@H]23)OCO4)cc(OC)c1O [Teniposide] | 94.6 | 110 | 105 | 94 | 85 | 87.9 | 98.9 | 92.1 | 105 | 113 | 127 | 103 | 97.2 | 104 | 98.1 | 98.2 | 98.3 | 132 | 64.6 | 30.3 | 67.2 | 81.8 | 105 | 101 | 95 | 111 | 71.5 | 79.4 | 75.2 | 87.8
COc1cc2nccc(Oc3ccc(NC(=O)Nc4cc(C)on4)c(Cl)c3)c2cc1OC [Tivozanib] | 102 | 102 | 114 | 92.5 | 81.1 | 95 | 98.3 | 100 | 101 | 97.4 | 103 | 103 | 102 | 97.6 | 103 | 106 | 115 | 88 | 98.3 | 98.7 | 115 | 88.1 | 112 | 80.8 | 99 | 94.5 | 91.5 | 113 | 106 | 119
